Like-named read-outs stand apart in the source and are kept apart here.
Assay: Biodistribution of 99mTc complexes in rats
Format: in vivo, Australian Albino Wistar Rats
Details: rat, rats; for tissue uptake at 0.5 min: 30 sec; for tissue uptake at 0.05 h: 3 min
Description: A typical method of radiolabelling of the chelator was achieved by dissolving the chelator in a basic solution of saline. The pH was then adjusted to approx. 6 with HCl. Excess stannous chloride was added to the resultant solution followed by one equivalent volume of sodium ^99m TcO4 (10-50 mCi/ml). Final concentration of the chelator was approx. 1 mg/ml. The efficacy of labelling was determined by ITLC-SG. For each product only one main radiochemical species was observed. Each complex was diluted to 15 μCi/100 μl with saline. […] (See FIGS. 1A and 1B).
Selected data from biodistribution results of technetium-99m complexes of No. 1, No. 2 and No 4 in the liver, kidney and blood at 3 minutes is tabulated below.

[1] = blood, read-out: biodistribution blood
[2] = bone, read-out: biodistribution bone
[3] = brain, read-out: biodistribution brain
[4] = eyes, read-out: biodistribution eyes
[5] = heart, read-out: biodistribution heart
[6] = kidneys, read-out: biodistribution kidneys
[7] = liver, read-out: biodistribution liver
[8] = lungs, read-out: biodistribution lungs
[9] = muscle, read-out: biodistribution muscle
[10] = pancreas, read-out: biodistribution pancreas
[11] = skin, read-out: biodistribution skin
[12] = spleen, read-out: biodistribution spleen
[13] = tail, read-out: biodistribution tail
[14] = thymus, read-out: biodistribution thymus
[15] = thyroid, read-out: biodistribution thyroid

For `O=C(O)CN(CCN(CC(=O)O)CC(=O)Nc1cc([N+](=O)[O-])ccc1O)CC(=O)Nc1cc([N+](=O)[O-])ccc1O` [Compound 3], the tissue uptake at 0.5 min [1] was 2.1 %ID/g, the tissue uptake at 1 min [1] was 1.83 %ID/g and the tissue uptake at 0.05 h [1] was 1.37 %ID/g. The tissue uptake at 5 min [1] was 1.17 %ID/g, the tissue uptake at 10 min [1] was 0.86 %ID/g and the tissue uptake at 0.5 min [2] was 0.3 %ID/g. For the same compound, the tissue uptake at 1 min [2] was 0.29 %ID/g, the tissue uptake at 0.05 h [2] was 0.3 %ID/g and the tissue uptake at 5 min [2] was 0.29 %ID/g. It also gave a tissue uptake at 10 min [2] of 0.22 %ID/g, a tissue uptake at 0.5 min [3] of 0.18 %ID/g and a tissue uptake at 1 min [3] of 0.14 %ID/g. For the same compound, the tissue uptake at 0.05 h [3] was 0.09 %ID/g, the tissue uptake at 5 min [3] was 0.08 %ID/g and the tissue uptake at 10 min [3] was 0.05 %ID/g. For the same compound, the tissue uptake at 0.5 min [4] was 0.2 %ID/g, the tissue uptake at 1 min [4] was 0.23 %ID/g and the tissue uptake at 0.05 h [4] was 0.23 %ID/g. The tissue uptake at 5 min [4] was 0.17 %ID/g, the tissue uptake at 10 min [4] was 0.18 %ID/g and the tissue uptake at 0.5 min [5] was 0.78 %ID/g. For the same compound, the tissue uptake at 1 min [5] was 0.65 %ID/g, the tissue uptake at 0.05 h [5] was 0.55 %ID/g and the tissue uptake at 5 min [5] was 0.45 %ID/g. It also gave a tissue uptake at 10 min [5] of 0.34 %ID/g, a tissue uptake at 0.5 min [6] of 3.92 %ID/g and a tissue uptake at 1 min [6] of 4.63 %ID/g. The tissue uptake at 0.05 h [6] was 4.27 %ID/g, the tissue uptake at 5 min [6] was 3 %ID/g and the tissue uptake at 10 min [6] was 2.1 %ID/g. It also gave a tissue uptake at 0.5 min [7] of 1.43 %ID/g, a tissue uptake at 1 min [7] of 1.61 %ID/g and a tissue uptake at 0.05 h [7] of 1.61 %ID/g. The tissue uptake at 5 min [7] was 1.24 %ID/g, the tissue uptake at 10 min [7] was 0.92 %ID/g and the tissue uptake at 0.5 min [8] was 1.24 %ID/g. It also gave a tissue uptake at 1 min [8] of 1.04 %ID/g, a tissue uptake at 0.05 h [8] of 0.87 %ID/g and a tissue uptake at 5 min [8] of 0.72 %ID/g. For the same compound, the tissue uptake at 10 min [8] was 0.57 %ID/g, the tissue uptake at 0.5 min [9] was 0.26 %ID/g and the tissue uptake at 1 min [9] was 0.24 %ID/g. For the same compound, the tissue uptake at 0.05 h [9] was 0.23 %ID/g, the tissue uptake at 5 min [9] was 0.21 %ID/g and the tissue uptake at 10 min [9] was 0.22 %ID/g. For the same compound, the tissue uptake at 0.5 min [10] was 0.47 %ID/g, the tissue uptake at 1 min [10] was 0.41 %ID/g and the tissue uptake at 0.05 h [10] was 0.38 %ID/g. It also gave a tissue uptake at 5 min [10] of 0.42 %ID/g, a tissue uptake at 10 min [10] of 0.21 %ID/g and a tissue uptake at 0.5 min [11] of 0.49 %ID/g. The tissue uptake at 1 min [11] was 0.43 %ID/g, the tissue uptake at 0.05 h [11] was 0.58 %ID/g and the tissue uptake at 5 min [11] was 0.64 %ID/g. For the same compound, the tissue uptake at 10 min [11] was 0.63 %ID/g, the tissue uptake at 0.5 min [12] was 0.49 %ID/g and the tissue uptake at 1 min [12] was 0.42 %ID/g. For the same compound, the tissue uptake at 0.05 h [12] was 0.29 %ID/g, the tissue uptake at 5 min [12] was 0.23 %ID/g and the tissue uptake at 10 min [12] was 0.17 %ID/g. The tissue uptake at 0.5 min [13] was 0.85 %ID/g, the tissue uptake at 1 min [13] was 2.43 %ID/g and the tissue uptake at 0.05 h [13] was 0.63 %ID/g. It also gave a tissue uptake at 5 min [13] of 0.84 %ID/g, a tissue uptake at 10 min [13] of 0.84 %ID/g and a tissue uptake at 0.5 min [14] of 0.38 %ID/g. It also gave a tissue uptake at 1 min [14] of 0.34 %ID/g, a tissue uptake at 0.05 h [14] of 0.32 %ID/g and a tissue uptake at 5 min [14] of 0.25 %ID/g. The tissue uptake at 10 min [14] was 0.2 %ID/g, the tissue uptake at 0.5 min [15] was 1.11 %ID/g and the tissue uptake at 1 min [15] was 1.14 %ID/g. It also gave a tissue uptake at 0.05 h [15] of 0.92 %ID/g, a tissue uptake at 5 min [15] of 0.7 %ID/g and a tissue uptake at 10 min [15] of 0.63 %ID/g.
